Reference: patent publication US4652646A, “Thiazolo[3,2-a][1,2,3]triazolo[4,5-d]pyrimidine and [1,3,4]thiadiazolo[3,2-a][1,2,3]triazolo[4,5-d]pyrimidine derivatives” (Daiichi Seiyaku Co., Ltd., priority 1984, dated 1987)

Assays:
[1] = test system: release of histamine induced by passive peritoneal anaphylaxis (PPA) reaction; assay: Passive Peritoneal Anaphylaxis (PPA) test: inhibition of histamine release; format: in vivo, Sprague-Dawley male rats; conditions: ip, 5 min; rat PPA; 1 mg/kg intraperitoneally 30 seconds before egg albumin
Description: (§1) 1 mg of egg albumin dissolved in 0.2 ml of saline was intramuscularly administered to each of Sprague-Dawley male rats weighing 300 to 350 g (Charles River Japan Inc.), and then 1 ml of a suspension of sterilized Bordetella pertussis (2×10^10 cells) in saline was administered intraperitoneally to the rats. After 14 days, blood was drawn from the rats to obtain an antiserum.
(§2) The test was conducted according to the method of Orange et al [Orange, R. P., Stechschulte, D. J., Austen, K. F., J. Immunol., 105, pp1087-1095 (1970)]. Sprague-Dawley male rats weighing 250 to 400 g (5 rats per group) were passively sensitized by administering 5 ml of 5-fold dilution antiserum (prepared by diluting the above antiserum with saline). 2 hours later, 5 ml of an egg albumin solution prepared by dissolving 2 mg of egg albumin in phosphate buffered saline containing 0.9 mM of calcium chloride was administered intraperitoneally to the rats. After 5 minutes, the rats were sacrificed by decapitation, and peritoneal fluid was pooled and centrifuged at 300×G at 4° C. for 10 minutes. Then, amounts of SRS-A and histamine in the supernatant were determined.
The quantitative determination of histamine was carried out according to the method of Shore et al [Shore, P. A., Bunkhalter, A. H., Cohn, V. H., J. Pharmacol. Exp. Ther., 127, pp182-186 (1959)], and the total released amount of histamine per rat (μg/rat) was calculated.
(§3) In this test, the test compound of this invention was administered as follows. 2 mg of a test compound was dissolved in 10 ml of phosphate buffered saline containing 0.9 mM of calcium chloride, an equimolar amount of sodium hydroxide to test compound, 2% of dimethyl sulfoxide and 2% of ethanol, and the solution was administered intraperitoneally to the rats at a dose of 1 mg/kg 30 seconds before the injection of egg albumin for inducing PPA. For a control group, the same solution without test compound and sodium hydroxide was administered.
(§4) The inhibitory activity on release of histamine and SRS-A by the PPA reaction in the treated group was calculated by the following formula: [formula] wherein: a represents a mean value of released amount in the control group.
(§5) b represents a mean value of released amount in the treated group.
(§6) c represents a mean value of spontaneously released amount.

[2] = test system: release of SRS-A induced by passive peritoneal anaphylaxis (PPA) reaction; assay: Passive Peritoneal Anaphylaxis (PPA) test: inhibition of SRS-A release; format: in vivo, Sprague-Dawley male rats; conditions: rat PPA
Description: as §1, §2
The quantitative determination of SRS-A was carried out according to the method of Stechschulte et al [Stechschulte, D. J., Auste, K. F., Bloch, K. J., J. Exp. Med., 125, pp127-147 (1967)] using a guinea pig ileum specimen in the presence of mepyramine and atropine. The amount of SRS-A was expressed in terms of unit, i.e., one unit of SRS-A activity was defined as the concentration required to produce a contraction of guinea pig ileum equal in amplitude to that produced by 5 ng of histamine, and the total released amount of SRS-A per rat (unit/rat) was calculated.
as §3, §4, §5, §6

[3] = test system: passive cutaneous anaphylaxis (PCA) reaction; assay: Passive cutaneous anaphylaxis (PCA) test; format: in vivo, Sprague-Dowley male rats; conditions: rat PCA, oral administration
Description: as §1
In this test, the antiserum described in Test Example 1 was used after it was diluted with saline so as to provide a blue spot having a diameter of about 10 mm in the following control group.
Sprague-Dowley male rats weighing about 180 g (5 rats per group) were sensitized by injecting 0.05 ml of the diluted antiserum into the shaved dorsal skin. 48 hours later, the animals were challenged with 1 ml of saline containing 5 mg of egg albumin and 5 mg of Evans blue dye administered via a tail vein. 30 minutes later, the rats were sacrificed by decapitation. The dorsal skin was removed, and the long and short axis of the each wheal was measured.
In this test, the test compound was administered as follows. 20 mg of a test compound was suspended in a 0.5% CMC aqueous solution, and the suspension was administered to each of the rats in an amount of 20 mg/kg 30 minutes before the antigen challenge. For a control group, only a 0.5% CMC solution was administered.
The inhibitory activity on the PCA reaction in the treated group was calculated by the following formula: [formula] wherein: a represents a mean value of blue spot area in the control group.
b represents a mean value of blue spot area in the treated group.

[4] = test system: passive cutaneous anaphylaxis (PCA) reaction; assay: Passive cutaneous anaphylaxis (PCA) test; format: in vivo, Sprague-Dowley male rats; conditions: 0.5 h; rat PCA; DSCG administered at 100 mg/kg of body weight
[5] = background art; cited from earlier work

O=C(O)c1cc(=O)c2c(OCC(O)COc3cccc4oc(C(=O)O)cc(=O)c34)cccc2o1 [DSCG, Sodium Cromoglycate, reference compound]
inhibition in vivo at 1 mg/kg [1]: 93%
inhibition in vivo at 1 mg/kg ([2]; ip, 5 min, 1 mg/kg intraperitoneally 30 seconds before egg albumin): 0%
inhibition of release of SRS-A in the PPA reaction (in words) [2]: did not inhibit the release of SRS-A in the PPA reaction
inhibition of the PCA reaction in oral administration (in words) [3]: did not inhibit the PCA reaction in oral administration
inhibition in vivo at 100 mg/kg [4]: 8%
effectiveness in oral administration (in words) [5]: not effective in oral administration
